Key:
HiBit-BRM fusion protein = molecular target: T1, HiBit-BRM fusion protein (Homo sapiens, UniProt P51531); assay: HiBiT-BRM cell-based degradation assay (Nano-Glo HiBiT Lytic Detection, 24 h); conditions: stable HeLa cell line expressing HiBiT-BRM, top dose 30 μM
T1 construct: expressed in transfected cells
How it was run: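 Stable HiBiT-BRM HeLa cells treated 24 h with 10-point 3-fold dilutions, top final dose 30 μM, in duplicate. Luminescence read after lytic LgBiT reagent. Percent degradation was normalised to DMSO (high control) and 2 μM reference BRM/BRG1 degrader (low control).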

[1] = molecular target: T2, HiBit-BRG1 fusion protein (Homo sapiens, UniProt P51532); assay: HiBiT-BRG1 cell-based degradation assay (Nano-Glo HiBiT Lytic Detection, 24 h); conditions: stable HeLa cell line expressing HiBit-BRG1 and LgBit, top dose 30 μM, read-out: BRG1 HiBit Degradation Maximum (%)
T2 construct: expressed in transfected cells
How it was run: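 HeLa cells stably expressing HiBiT-BRG1 plus LgBiT were treated with 10-point 3-fold compound dilutions (top 30 μM final) for 24 h. Lytic Nano-Glo HiBiT luminescence was read. % degradation was normalised between DMSO (high control) and 2 μM of a reference BRM/BRG1 degrader (low control).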

T1 sequence (P51531 whole entry, the tested form may be a part): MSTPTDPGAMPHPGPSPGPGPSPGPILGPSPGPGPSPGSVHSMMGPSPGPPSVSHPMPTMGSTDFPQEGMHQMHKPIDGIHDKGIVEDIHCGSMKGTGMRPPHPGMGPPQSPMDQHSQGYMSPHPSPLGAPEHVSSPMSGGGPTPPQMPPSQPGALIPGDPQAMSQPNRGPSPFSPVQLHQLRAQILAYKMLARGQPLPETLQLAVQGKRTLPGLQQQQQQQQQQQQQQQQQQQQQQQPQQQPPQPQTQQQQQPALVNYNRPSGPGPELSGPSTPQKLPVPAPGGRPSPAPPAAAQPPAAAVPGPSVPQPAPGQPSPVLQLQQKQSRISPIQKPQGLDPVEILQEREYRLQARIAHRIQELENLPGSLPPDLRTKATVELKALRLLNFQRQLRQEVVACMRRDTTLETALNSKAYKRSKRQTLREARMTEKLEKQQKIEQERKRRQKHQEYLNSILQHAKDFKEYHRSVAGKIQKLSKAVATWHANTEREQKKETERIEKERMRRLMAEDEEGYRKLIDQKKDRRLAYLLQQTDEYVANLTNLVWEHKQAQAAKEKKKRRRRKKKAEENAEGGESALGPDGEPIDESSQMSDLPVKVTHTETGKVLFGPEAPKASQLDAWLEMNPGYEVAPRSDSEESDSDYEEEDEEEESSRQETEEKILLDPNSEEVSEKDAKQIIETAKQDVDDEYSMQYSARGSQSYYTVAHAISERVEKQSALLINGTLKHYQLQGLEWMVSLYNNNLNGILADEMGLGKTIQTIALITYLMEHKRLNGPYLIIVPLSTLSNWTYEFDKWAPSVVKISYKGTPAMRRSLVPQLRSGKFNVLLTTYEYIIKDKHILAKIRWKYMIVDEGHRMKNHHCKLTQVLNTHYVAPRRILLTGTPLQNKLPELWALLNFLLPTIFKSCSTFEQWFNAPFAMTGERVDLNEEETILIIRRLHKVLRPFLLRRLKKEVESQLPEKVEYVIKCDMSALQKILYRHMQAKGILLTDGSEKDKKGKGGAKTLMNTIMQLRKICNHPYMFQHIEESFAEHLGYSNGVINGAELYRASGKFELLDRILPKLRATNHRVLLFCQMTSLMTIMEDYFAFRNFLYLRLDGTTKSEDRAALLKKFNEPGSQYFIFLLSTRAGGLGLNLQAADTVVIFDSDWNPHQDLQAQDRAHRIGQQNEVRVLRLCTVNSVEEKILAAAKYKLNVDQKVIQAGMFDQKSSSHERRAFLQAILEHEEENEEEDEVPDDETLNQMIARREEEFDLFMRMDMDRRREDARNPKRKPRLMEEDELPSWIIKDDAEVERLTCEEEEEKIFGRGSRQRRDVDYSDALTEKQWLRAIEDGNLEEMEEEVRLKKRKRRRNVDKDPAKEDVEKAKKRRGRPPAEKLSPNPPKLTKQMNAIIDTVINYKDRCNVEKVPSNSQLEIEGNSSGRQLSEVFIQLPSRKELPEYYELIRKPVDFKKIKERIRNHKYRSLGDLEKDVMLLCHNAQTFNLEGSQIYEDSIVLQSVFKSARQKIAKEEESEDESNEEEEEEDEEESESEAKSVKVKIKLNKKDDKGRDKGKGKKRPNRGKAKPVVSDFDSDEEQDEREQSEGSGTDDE
T2 sequence (P51532 whole entry, the tested form may be a part): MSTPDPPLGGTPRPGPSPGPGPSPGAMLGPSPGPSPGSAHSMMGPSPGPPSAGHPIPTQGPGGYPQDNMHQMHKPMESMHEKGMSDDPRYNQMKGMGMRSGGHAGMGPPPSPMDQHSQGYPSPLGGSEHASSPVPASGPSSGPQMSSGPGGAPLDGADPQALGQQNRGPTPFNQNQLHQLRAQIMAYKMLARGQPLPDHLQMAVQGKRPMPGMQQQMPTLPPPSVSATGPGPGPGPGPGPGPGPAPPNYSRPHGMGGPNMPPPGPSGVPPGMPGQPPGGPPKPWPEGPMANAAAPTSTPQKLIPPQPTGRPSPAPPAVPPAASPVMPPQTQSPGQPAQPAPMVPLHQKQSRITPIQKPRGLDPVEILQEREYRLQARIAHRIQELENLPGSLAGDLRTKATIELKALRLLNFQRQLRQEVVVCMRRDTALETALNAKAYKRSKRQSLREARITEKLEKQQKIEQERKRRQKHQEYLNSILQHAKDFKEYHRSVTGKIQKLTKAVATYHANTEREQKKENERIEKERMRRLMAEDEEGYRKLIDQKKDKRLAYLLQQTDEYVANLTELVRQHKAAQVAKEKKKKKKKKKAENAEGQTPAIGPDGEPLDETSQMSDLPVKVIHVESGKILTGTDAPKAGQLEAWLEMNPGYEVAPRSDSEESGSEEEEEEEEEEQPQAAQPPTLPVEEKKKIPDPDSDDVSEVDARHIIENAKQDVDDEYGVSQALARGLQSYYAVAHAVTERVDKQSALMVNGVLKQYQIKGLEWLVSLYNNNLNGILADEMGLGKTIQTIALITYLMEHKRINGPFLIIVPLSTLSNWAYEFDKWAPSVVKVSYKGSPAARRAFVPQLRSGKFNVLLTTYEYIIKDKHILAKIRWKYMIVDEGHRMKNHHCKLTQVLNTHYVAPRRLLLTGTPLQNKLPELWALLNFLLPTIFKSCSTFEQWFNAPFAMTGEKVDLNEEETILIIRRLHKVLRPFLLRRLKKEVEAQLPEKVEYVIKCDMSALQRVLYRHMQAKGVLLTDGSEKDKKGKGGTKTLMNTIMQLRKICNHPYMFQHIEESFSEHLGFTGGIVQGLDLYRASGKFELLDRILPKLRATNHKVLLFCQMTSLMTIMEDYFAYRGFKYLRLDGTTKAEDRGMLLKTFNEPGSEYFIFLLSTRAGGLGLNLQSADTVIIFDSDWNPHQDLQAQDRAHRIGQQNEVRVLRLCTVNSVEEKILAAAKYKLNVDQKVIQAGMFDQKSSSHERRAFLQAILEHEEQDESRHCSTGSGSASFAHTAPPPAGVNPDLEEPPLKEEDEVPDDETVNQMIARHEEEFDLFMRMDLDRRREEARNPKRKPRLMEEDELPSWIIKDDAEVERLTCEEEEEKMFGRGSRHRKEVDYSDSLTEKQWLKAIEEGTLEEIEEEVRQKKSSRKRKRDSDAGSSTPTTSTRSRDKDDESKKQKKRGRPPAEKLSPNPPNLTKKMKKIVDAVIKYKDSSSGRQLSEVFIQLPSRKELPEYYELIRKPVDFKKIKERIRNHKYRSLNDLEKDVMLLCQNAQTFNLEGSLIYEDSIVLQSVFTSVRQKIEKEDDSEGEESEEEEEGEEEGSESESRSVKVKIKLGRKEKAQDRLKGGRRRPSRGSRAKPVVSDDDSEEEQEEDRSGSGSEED

Row | SMILES | Dmax [1] [%] | BRM HiBit Degradation Maximum (%) (HiBit-BRM fusion protein)
1 | Nc1nnc(-c2ccccc2O)cc1OCC12CC(CNC(=O)CCN3CC4(C3)CN(c3ccc5c(c3)C(=O)N(C3CCC(=O)NC3=O)C5=O)C4)(C1)C2 (stereo not drawn) [Compound 17, N-((3-(((3-amino-6-(2-hydroxyphenyl)pyridazin-4-yl)oxy)methyl)bicyclo[1.1.1]pentan-1-yl)methyl)-3-(6-(2-(2,6-dioxopiperidin-3-yl)-1,3-dioxoisoindolin-5-yl)-2,6-diazaspiro [3.3]heptan-2-yl)propanamide] | < 50 | C (“C” indicates maximum degradation < 50%)
2 | Nc1nnc(-c2ccccc2O)cc1OCC12CC(CNC(=O)C3CC3CNC(=O)COc3cccc4c3C(=O)N(C3CCC(=O)NC3=O)C4=O)(C1)C2 (stereo not drawn) [Compound 12, N-[[3-([[3-amino-6-(2-hydroxyphenyl)pyridazin-4-yl]oxy]methyl)bicyclo[1.1.1]pentan-1-yl]methyl]-2-[(2-[[2-(2,6-dioxopiperidin-3-yl)-1,3-dioxoisoindol-4-yl]oxy]acetamido)methyl]cyclopropane-1-carboxamide] | < 50 | C (“C” indicates maximum degradation < 50%)
3 | Nc1nnc(-c2ccccc2O)cc1OCCC12CC(NC(=O)CCOCCOCCNc3cccc4c3C(=O)N(C3CCC(=O)NC3=O)C4=O)(C1)C2 (stereo not drawn) [Compound 27, N-[3-(2-[[3-amino-6-(2-hydroxyphenyl)pyridazin-4-yl]oxy]ethyl)bicyclo[1.1.1]pentan-1-yl]-3-[2-(2-[[2-(2,6-dioxopiperidin-3-yl)-1,3-dioxoisoindol-4-yl]amino]ethoxy)ethoxy]propanamide] | < 50 | C (“C” indicates maximum degradation < 50%)
4 | Nc1nnc(-c2ccccc2O)cc1OCCC12CC(NC(=O)C3CC3CNC(=O)COc3cccc4c3C(=O)N(C3CCC(=O)NC3=O)C4=O)(C1)C2 (stereo not drawn) [Compound 28, N-[3-(2-[[3-amino-6-(2-hydroxyphenyl)pyridazin-4-yl]oxy]ethyl)bicyclo[1.1.1]pentan-1-yl]-2-[(2-[[2-(2,6-dioxopiperidin-3-yl)-1,3-dioxoisoindol-4-yl]oxy]acetamido)methyl]cyclopropane-1-carboxamide] | < 50 | C (“C” indicates maximum degradation < 50%)
5 | Nc1nnc(-c2ccccc2O)cc1OCC12CC(CNC(=O)CCCCCCCCCCNc3cccc4c3C(=O)N(C3CCC(=O)NC3=O)C4=O)(C1)C2 (stereo not drawn) [Compound 8, N-[[3-([[3-amino-6-(2-hydroxyphenyl)pyridazin-4-yl]oxy]methyl)bicyclo[1.1.1]pentan-1-yl]methyl]-11-[[2-(2,6-dioxopiperidin-3-yl)-1,3-dioxoisoindol-4-yl]amino]undecanamide] | < 50 | C (“C” indicates maximum degradation < 50%)
6 | Nc1nnc(-c2ccccc2O)cc1OCCC12CC(NC(=O)CCCCCCCCNc3ccc4c(c3)C(=O)N(C3CCC(=O)NC3=O)C4=O)(C1)C2 (stereo not drawn) [Compound 25, N-[3-(2-[[3-amino-6-(2-hydroxyphenyl)pyridazin-4-yl]oxy]ethyl)bicyclo[1.1.1]pentan-1-yl]-9-[[2-(2,6-dioxopiperidin-3-yl)-1,3-dioxoisoindol-5-yl]amino]nonanamide] | < 50 | C (“C” indicates maximum degradation < 50%)
7 | Nc1nnc(-c2ccccc2O)cc1OCC12CC(CNC(=O)C3CCN(CCOc4ccc5c(c4)C(=O)N(C4CCC(=O)NC4=O)C5=O)CC3)(C1)C2 (stereo not drawn) [Compound 15, N-((3-(((3-amino-6-(2-hydroxyphenyl)pyridazin-4-yl)oxy)methyl)bicyclo[1.1.1]pentan-1-yl)methyl)-1-(2-((2-(2,6-dioxopiperidin-3-yl)-1,3-dioxoisoindolin-5-yl)oxy)ethyl)piperidine-4-carboxamide] | < 50 | C (“C” indicates maximum degradation < 50%)
8 | Nc1nnc(-c2ccccc2O)cc1OCC12CC(CNC(=O)CCCCOc3cccc4c3C(=O)N(C3CCC(=O)NC3=O)C4=O)(C1)C2 (stereo not drawn) [Compound 3, N-[[3-([[3-amino-6-(2-hydroxyphenyl)pyridazin-4-yl]oxy]methyl)bicyclo[1.1.1]pentan-1-yl]methyl]-5-[[2-(2,6-dioxopiperidin-3-yl)-1,3-dioxoisoindol-4-yl]oxy]pentanamide] | < 50 | C (“C” indicates maximum degradation < 50%)
9 | Nc1nnc(-c2ccccc2O)cc1OCCC12CC(NC(=O)C3CC3CNC(=O)COc3ccc4c(c3)C(=O)N(C3CCC(=O)NC3=O)C4=O)(C1)C2 (stereo not drawn) [Compound 29, N-(3-(2-((3-amino-6-(2-hydroxyphenyl)pyridazin-4-yl)oxy)ethyl)bicyclo[1.1.1]pentan-1-yl)-2-((2-((2-(2,6-dioxopiperidin-3-yl)-1,3-dioxoisoindolin-5-yl)oxy)acetamido)methyl)cyclopropane-1-carboxamide] | < 50 | C (“C” indicates maximum degradation < 50%)

The next lines start with results.

Row | Dmax [1] [%] | SMILES | BRM HiBit Degradation Maximum (%) (HiBit-BRM fusion protein)
10 | < 50 | Nc1nnc(-c2ccccc2O)cc1OCC12CC(C(=O)N3CCN(c4ccc5c(c4)C(=O)N(C4CCC(=O)NC4=O)C5=O)CC3)(C1)C2 (stereo not drawn) [Compound 54, 5-(4-(3-(((3-amino-6-(2-hydroxyphenyl)pyridazin-4-yl)oxy)methyl)bicyclo[1.1.1]pentane-1-carbonyl)piperazin-1-yl)-2-(2,6-dioxopiperidin-3-yl)isoindoline-1,3-dione] | C (“C” indicates maximum degradation < 50%)
11 | < 50 | CN(CCNC(=O)COc1ccc2c(c1)C(=O)N(C1CCC(=O)NC1=O)C2=O)CCNC(=O)C12CC(COc3cc(-c4ccccc4O)nnc3N)(C1)C2 (stereo not drawn) [Compound 76, 3-(((3-amino-6-(2-hydroxyphenyl)pyridazin-4-yl)oxy)methyl)-N-(2-((2-(2-((2-(2,6-dioxopiperidin-3-yl)-1,3-dioxoisoindolin-5-yl)oxy)acetamido)ethyl)(methyl)amino)ethyl)bicyclo[1.1.1]pentane-1-carboxamide] | C (“C” indicates maximum degradation < 50%)
12 | > 50 | Nc1nnc(-c2ccccc2O)cc1OCC12CC(C(=O)NCCOC3CN(c4ccc5c(c4)C(=O)N(C4CCC(=O)NC4=O)C5=O)C3)(C1)C2 (stereo not drawn) [Compound 81, 3-(((3-amino-6-(2-hydroxyphenyl)pyridazin-4-yl)oxy)methyl)-N-(2-((1-(2-(2,6-dioxopiperidin-3-yl)-1,3-dioxoisoindolin-5-yl)azetidin-3-yl)oxy)ethyl)bicyclo[1.1.1]pentane-1-carboxamide] | B (“B” indicates maximum degradation ≥ 50%)
13 | < 50 | Nc1nnc(-c2ccccc2O)cc1OCC12CC(C(=O)NCCCCCCCCNc3cccc4c3C(=O)N(C3CCC(=O)NC3=O)C4=O)(C1)C2 (stereo not drawn) [Compound 57, 3-(((3-amino-6-(2-hydroxyphenyl)pyridazin-4-yl)oxy)methyl)-N-(8-((2-(2,6-dioxopiperidin-3-yl)-1,3-dioxoisoindolin-4-yl)amino)octyl)bicyclo[1.1.1]pentane-1-carboxamide] | C (“C” indicates maximum degradation < 50%)
14 | < 50 | Nc1nnc(-c2ccccc2O)cc1OCC12CC(C(=O)NCCCCCCCCNc3ccc4c(c3)C(=O)N(C3CCC(=O)NC3=O)C4=O)(C1)C2 (stereo not drawn) [Compound 65, 3-(((3-amino-6-(2-hydroxyphenyl)pyridazin-4-yl)oxy)methyl)-N-(8-((2-(2,6-dioxopiperidin-3-yl)-1,3-dioxoisoindolin-5-yl)amino)octyl)bicyclo[1.1.1]pentane-1-carboxamide] | C (“C” indicates maximum degradation < 50%)
15 | > 75 | Cc1ncsc1-c1ccc(CNC(=O)[C@@H]2C[C@@H](O)CN2C(=O)[C@@H](NC(=O)CCCCC(=O)NC23CC(CCOc4cc(-c5ccccc5O)nnc4N)(C2)C3)C(C)(C)C)cc1 [Compound 43, N1-(3-(2-((3-amino-6-(2-hydroxyphenyl)pyridazin-4-yl)oxy)ethyl)bicyclo[1.1.1]pentan-1-yl)-N6-((S)-1-((2S,4R)-4-hydroxy-2-((4-(4-methylthiazol-5-yl)benzyl)carbamoyl)pyrrolidin-1-yl)-3,3-dimethyl-1-oxobutan-2-yl)adipamide] | A (“A” indicates maximum degradation ≥ 75%)
16 | < 50 | Nc1nnc(-c2ccccc2O)cc1OCCC12CC(NC(=O)CCOCCOCCOc3cccc4c3C(=O)N(C3CCC(=O)NC3=O)C4=O)(C1)C2 (stereo not drawn) [Compound 30, N-(3-(2-((3-amino-6-(2-hydroxyphenyl)pyridazin-4-yl)oxy)ethyl)bicyclo[1.1.1]pentan-1-yl)-3-(2-(2-((2-(2,6-dioxopiperidin-3-yl)-1,3-dioxoisoindolin-4-yl)oxy)ethoxy)ethoxy)propanamide] | C (“C” indicates maximum degradation < 50%)
17 | < 50 | Nc1nnc(-c2ccccc2O)cc1OCC12CC(C(=O)NCCOCCOCCNC(=O)COc3cccc4c3C(=O)N(C3CCC(=O)NC3=O)C4=O)(C1)C2 (stereo not drawn) [Compound 90, 3-(((3-amino-6-(2-hydroxyphenyl)pyridazin-4-yl)oxy)methyl)-N-(2-(2-(2-(2-((2-(2,6-dioxopiperidin-3-yl)-1,3-dioxoisoindolin-4-yl)oxy)acetamido)ethoxy)ethoxy)ethyl)bicyclo[1.1.1]pentane-1-carboxamide] | C (“C” indicates maximum degradation < 50%)
18 | < 50 | Nc1nnc(-c2ccccc2O)cc1OCC12CC(C(=O)NCCCCNc3ccc4c(c3)C(=O)N(C3CCC(=O)NC3=O)C4=O)(C1)C2 (stereo not drawn) [Compound 62, formic acid] | C (“C” indicates maximum degradation < 50%)

Reference: patent US12552775B2, “Compounds and uses thereof” (Foghorn Therapeutics Inc., priority 2020, dated 2026)
